Measured values as given in PubChem BioAssay AID2060361 (Molecular Pharmacology Branch, DTP, NCI, 2025).
“And” between values parts separate entries of the source, which are not always exact repeats. Identical values can stand only once.

Test system: 463943-066-T-J2-PDC tumor spheroids with HUVEC/MSC, viability
Assay: Anticancer human tumor 463943-066-T-J2-PDC patient-derived colon adenocarcinoma cell line growth inhibition [TAK]
Conditions: for viability, T/C: stronger effect = lower value
Source text: Combinatorial screen of targeted agents with TAK-243 and ipatasertib in multi-cell type tumor spheroids
A high-throughput screen of multi-cell type tumor spheroids was designed to identify active combinations of targeted small molecules and TAK-243 or ipatasertib. Complex spheroids include a stromal component modeled by human endothelial cells (HUVEC) and fibroblasts modeled by human mesenchymal stem cells (MSCs). The concentration ranges selected for each drug and investigational agent were based upon clinically achievable concentrations if the clinical Cmax of the agent was known.
Compounds. The drugs and investigational agents: TAK-243 (785004), ipatasertib (767898), everolimus (733504), selumetinib (741078), bortezomib (756655), trametinib (758246), ixazomib (758254), vemurafenib (761431), dabrafenib (764134), sapanisertib (764658), alpelisib (765974), and copanlisib (816437), were obtained from the National Cancer Institute (NCI) Developmental Therapeutics Program Chemical Repository. The FDA-approved anticancer drug set is available from the NCI Developmental Therapeutics Program. […] The stock solutions were prepared in dimethyl sulfoxide (DMSO, Sigma-Aldrich, St. Louis, MO, cat. D2650) at 800-fold the tested concentration and stored at -70 degrees C prior to their use. All drugs and investigational agents were tested over a range starting from a high concentration at or near the clinical Cmax and decreasing in half-log increments. If the clinical Cmax for an agent had not been determined, the highest concentration tested was 10 microM.
NCI60 Cell Culture. NCI60 cell lines were obtained from the NCI Developmental Therapeutics Program Tumor Repository. For each lot of cells, the Repository performed Applied Biosystems AmpFLSTR Identifiler testing with PCR amplification to confirm consistency with the published Identifier STR profile for each cell line. Cells were kept in continuous culture for no more than 20 passages. The optimal seeding densities for each of the cell lines at each time point assessed were determined prior to performing the concentration response studies. Briefly, the NCI60 human tumor lines were grown as monolayers in RPMI 1640 medium supplemented with 10% FBS and 2 mmol/L L-glutamine.
An additional 2 lines were from the NCI60 cell line panel including melanomas, MALME-3M and SK-MEL-2. Pooled donor human umbilical vein endothelial cells (HUVEC, Lonza, cat. CC-2519) and human mesenchymal stem cells (hMSC, Lonza, cat. PT-2501) were purchased from Lonza (Walkersville, MD).
PDMR cell lines were grown in complete medium (DC medium): Dulbecco's modified Eagle's medium (DMEM)/F12 supplemented with 5% fetal bovine serum (FBS), 2 mM L-glutamine, 100 U/mL penicillin and 100 µg/ml streptomycin, 0.4 µg/ml hydrocortisone, 10 ng/ml epidermal growth factor (EGF) recombinant human protein, 24 µg/mL adenine, and 0.1 mg/mL primocin. During culture from frozen stock vials, PDMR cells were cultured in the same medium containing 10 µM Y-27632 (see Table 3). The PDCs were cultured in complete DMEM/F12 media without 10 microM Y-27632 dihydrochloride for at least two passages prior to the screen. The pooled donor HUVEC and hMSC were cultured in endothelial cell growth medium 2 (PromoCell, Heidelberg, Germany, cat. C-22011) and mesenchymal stem cell growth medium 2 (PromoCell, cat. C-28009), respectively. For all experiments, HUVEC and hMSC were used at passages </=5.
For the pre-screen, cell seeding densities were determined from a titration spanning the range from 5,000 to 313 cells per well. The mct-spheroids including 60% malignant cells, 25% HUVEC and 15% MSC dispensed as a mixture into U-bottom Ultra-Low Attachment 384-well plates (Corning, NY)
High-throughput Drug Combination Screening.
Prior to their inoculation into 384-well plates, malignant cells, HUVEC, and hMSC were removed from T flasks using TrypLE express (Thermo Fisher Scientific, cat. 12605036) and harvested by centrifugation for 5 min at 233 x g. […]

[1] = curve of first compound, second compound 0.3 µM
[2] = curve of first compound, second compound 0.949 µM
[3] = curve of first compound, second compound 3 µM
[4] = curve of first compound, second compound 9.49 µM
[5] = curve of first compound, second compound 30 µM
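Also: spheroids exposed to drugs for seven days.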
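For viability, T/C in this document: 100% = DMSO vehicle control wells.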

Compound: CCCS(=O)(=O)Nc1ccc(F)c(C(=O)c2c[nH]c3ncc(-c4ccc(Cl)cc4)cc23)c1F
- viability, T/C (compound 0.316 µM): 108% and 97.6%
- viability, T/C (compound 1 µM): 107% and 112%
- viability, T/C (compound 3.16 µM): 109% and 126%
- viability, T/C (compound 10 µM): 95.6% and 103%
- viability, T/C (compound 31.6 µM): 122% and 118%
- viability, T/C (compound 100 µM): 122% and 124%
- IC50 (curve of compound): > 100 µM

Compound: COC1CC2CCC(C)C(O)(O2)C(=O)C(=O)N2CCCCC2C(=O)OC(C(C)CC2CCC(OCCO)C(OC)C2)CC(=O)C(C)C=C(C)C(O)C(OC)C(=O)C(C)CC(C)C=CC=CC=C1C (configuration not stated) + CC(C)NCC(C(=O)N1CCN(c2ncnc3c2C(C)CC3O)CC1)c1ccc(Cl)cc1
- IC50 [1]: > 0.1 µM
- IC50 [2]: > 0.1 µM
- IC50 [3]: > 0.1 µM
- IC50 [4]: > 0.1 µM
- IC50 [5]: > 0.1 µM
- viability, T/C (second compound 0.3 µM, first compound 0.000316 µM): 91.7%
- viability, T/C (second compound 0.3 µM, first compound 0.001 µM): 86.2%
- viability, T/C (second compound 0.3 µM, first compound 0.00316 µM): 90.4%
- viability, T/C (second compound 0.3 µM, first compound 0.01 µM): 74.8%
- viability, T/C (second compound 0.3 µM, first compound 0.0316 µM): 86.5%
- viability, T/C (second compound 0.3 µM, first compound 0.1 µM): 77.3%
- viability, T/C (second compound 0.949 µM, first compound 0.000316 µM): 85.5%
- viability, T/C (second compound 0.949 µM, first compound 0.001 µM): 90.9%
- viability, T/C (second compound 0.949 µM, first compound 0.00316 µM): 83.2%
- viability, T/C (second compound 0.949 µM, first compound 0.01 µM): 76.4%
- viability, T/C (second compound 0.949 µM, first compound 0.0316 µM): 78.8%
- viability, T/C (second compound 0.949 µM, first compound 0.1 µM): 80.7%
- viability, T/C (second compound 3 µM, first compound 0.000316 µM): 86%
- viability, T/C (second compound 3 µM, first compound 0.001 µM): 91.3%
- viability, T/C (second compound 3 µM, first compound 0.00316 µM): 81.4%
- viability, T/C (second compound 3 µM, first compound 0.01 µM): 80.3%
- viability, T/C (second compound 3 µM, first compound 0.0316 µM): 78.2%
- viability, T/C (second compound 3 µM, first compound 0.1 µM): 78.3%
- viability, T/C (second compound 9.49 µM, first compound 0.000316 µM): 84.8%
- viability, T/C (second compound 9.49 µM, first compound 0.001 µM): 76.7%
- viability, T/C (second compound 9.49 µM, first compound 0.00316 µM): 81.5%
- viability, T/C (second compound 9.49 µM, first compound 0.01 µM): 76.6%
- viability, T/C (second compound 9.49 µM, first compound 0.0316 µM): 80%
- viability, T/C (second compound 9.49 µM, first compound 0.1 µM): 78.6%
- viability, T/C (second compound 30 µM, first compound 0.000316 µM): 85.8%
- viability, T/C (second compound 30 µM, first compound 0.001 µM): 79.9%
- viability, T/C (second compound 30 µM, first compound 0.00316 µM): 82.8%
- viability, T/C (second compound 30 µM, first compound 0.01 µM): 78.8%
- viability, T/C (second compound 30 µM, first compound 0.0316 µM): 73.1%
- viability, T/C (second compound 30 µM, first compound 0.1 µM): 80.8%

Compound: Cn1cnc2c(F)c(Nc3ccc(Br)cc3Cl)c(C(=O)NOCCO)cc21 + CC(C)NCC(C(=O)N1CCN(c2ncnc3c2C(C)CC3O)CC1)c1ccc(Cl)cc1
- IC50 [1]: > 3 µM
- IC50 [2]: > 3 µM
- IC50 [3]: > 3 µM
- IC50 [4]: > 3 µM
- IC50 [5]: > 3 µM
- viability, T/C (second compound 0.3 µM, first compound 0.00949 µM): 102%
- viability, T/C (second compound 0.3 µM, first compound 0.03 µM): 115%
- viability, T/C (second compound 0.3 µM, first compound 0.0949 µM): 92.8%
- viability, T/C (second compound 0.3 µM, first compound 0.3 µM): 78%
- viability, T/C (second compound 0.3 µM, first compound 0.949 µM): 72.6%
- viability, T/C (second compound 0.3 µM, first compound 3 µM): 54.6%
- viability, T/C (second compound 0.949 µM, first compound 0.00949 µM): 101%
- viability, T/C (second compound 0.949 µM, first compound 0.03 µM): 105%
- viability, T/C (second compound 0.949 µM, first compound 0.0949 µM): 77.6%
- viability, T/C (second compound 0.949 µM, first compound 0.3 µM): 69.2%
- viability, T/C (second compound 0.949 µM, first compound 0.949 µM): 63.9%
- viability, T/C (second compound 0.949 µM, first compound 3 µM): 62.3%
- viability, T/C (second compound 3 µM, first compound 0.00949 µM): 90.4%
- viability, T/C (second compound 3 µM, first compound 0.03 µM): 103%
- viability, T/C (second compound 3 µM, first compound 0.0949 µM): 85.2%
- viability, T/C (second compound 3 µM, first compound 0.3 µM): 76.2%
- viability, T/C (second compound 3 µM, first compound 0.949 µM): 70.3%
- viability, T/C (second compound 3 µM, first compound 3 µM): 58.4%
- viability, T/C (second compound 9.49 µM, first compound 0.00949 µM): 102%
- viability, T/C (second compound 9.49 µM, first compound 0.03 µM): 94.6%
- viability, T/C (second compound 9.49 µM, first compound 0.0949 µM): 88.5%
- viability, T/C (second compound 9.49 µM, first compound 0.3 µM): 79.8%
- viability, T/C (second compound 9.49 µM, first compound 0.949 µM): 70.2%
- viability, T/C (second compound 9.49 µM, first compound 3 µM): 67.1%
- viability, T/C (second compound 30 µM, first compound 0.00949 µM): 103%
- viability, T/C (second compound 30 µM, first compound 0.03 µM): 92.2%
- viability, T/C (second compound 30 µM, first compound 0.0949 µM): 88.6%
- viability, T/C (second compound 30 µM, first compound 0.3 µM): 71.7%
- viability, T/C (second compound 30 µM, first compound 0.949 µM): 71.3%
- viability, T/C (second compound 30 µM, first compound 3 µM): 60.1%
